Data taken from PubChem BioAssay (NCI).
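Compound exposure: 48 hours, 5 concentrations, 96-well plates. TGI denotes the concentration required for complete inhibition of growth.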

How the values were obtained:
Test in all cases: inhibition of tumour cell growth, NCI panel, 48 h
[1] = system: HCT-116 colon
[2] = system: UACC-257 melanoma
[3] = system: OVCAR-3 ovarian
[4] = system: MDA-N
[5] = system: U251 CNS
[6] = system: MALME-3M melanoma
[7] = system: SK-MEL-5 melanoma
[8] = system: SK-OV-3 ovarian
[9] = system: DU-145 prostate
[10] = system: OVCAR-8 ovarian

SMILES | TGI [1] | TGI [2] | TGI [3] | TGI [4] | TGI [5] | TGI [6] | TGI [7] | TGI [8] | TGI [9] | TGI [10]
CC(C)(C)c1cc(C2=NN(c3ccccc3)C(c3ccccc3)C2)cc(C(C)(C)C)c1O (stereo not given) | > 100 µM | > 100 µM | > 100 µM | > 100 µM | > 100 µM | > 100 µM | > 100 µM | > 100 µM | > 100 µM | > 100 µM
N#CCCN(CCC#N)c1ccc(/C=C2\N=C(c3ccccc3)N(NC(N)=S)C2=O)cc1 | > 100 µM | > 100 µM | > 100 µM | > 100 µM | > 100 µM | > 100 µM | > 100 µM | > 100 µM | > 100 µM | > 100 µM
COC1(OC)CC(CO)(CNc2cc(Cl)nc(N)n2)C1 | > 100 µM | > 100 µM | > 100 µM | > 100 µM | > 100 µM | > 100 µM | > 100 µM | > 100 µM | > 100 µM | > 100 µM
C#CC1(O)C(COP(=O)(O)OCC2OC(n3ccc(NCCCCCCCCCCCCCCCCCC)nc3=O)C(O)C2O)OC(n2ccc(N)nc2=O)C1O (stereo not given) | > 36 µM | 60.2 µM | 62.1 µM | 70.6 µM | 53.5 µM | 11 µM | 26 µM | > 59.4 µM | > 100 µM | 35.3 µM
